{
  "source": "patent US6951751B2",
  "about": "“DNA and amino acid sequences of a tyrosine-inducible tyrosine ammonia lyase enzyme from the yeast Trichosporon cutaneum” (E. I. du Pont de Nemours and Company, priority 2002, dated 2005)",
  "format_in_all_cases": "biochemical",
  "key": {"[1]": {"system": "Sporidobolus pararoseus (ATCC No. 11386) PAL/TAL enzyme", "test": "PAL/TAL enzyme kinetics in cell-free extract, S. pararoseus ATCC 11386", "text": "(§1) The yeast strains: Rhodotorula rubra (ATCC No. 889), Saccharomycopsis fibuligera (ATCC No. 2080), Rhodosporidium toruloides (ATCC No. 10788), Sporidobolus pararoseus (ATCC No. 11386), Sporidiobolus ruinenii (ATCC No. 20489), Rhodotorula graminis (ATCC No. 20804), Rhodotorula minuta (ATCC No. 32769), Trichosporon cutaneum (ATCC No. 46446), and Trichosporon cutaneum (ATCC No. 58094) were obtained from the American Type Culture Collection (ATCC, Manassas, Va.). These yeast strains were streaked out from glycerol stock onto nutrient agar plates and grown at 30° C. Single colonies were then selected and transferred to 50 mL of Dagley's medium (Sparnins, et al, J. Bact. 138:425-430 (1979)) supplemented with 0.1 g/L of tyrosine, phenylalanine or succinate. Alternatively, a minimal media, consisting of 1.61 g/L of K2HPO4, 5.55 g/L of KH2PO4, 0.1 g/L MgSO4, 0.01 g/L of biotin, with a pH of 6.2 and supplemented with 0.5 g/L of tyrosine, was used. The cells were grown up at 30° C. on a shaker at ˜250 rpm to an OD between 1.0 and 2.0 at 600 nm. The cells were then pelleted by centrifugation and resuspended in 1.0 mL of 50 mM Tris-HCl buffer, pH 8.5.\n(§2) The cells were washed and then resuspended in 50 mM Tris-HCl buffer, pH 8.5, containing 1.0 μg/mL of both leupeptin and pepstatin A, 0.5 mM of PMSF (phenylmethylsulfonyl fluoride) and a small amount of DNase. The cells were then passed twice through a French Pressure Cell at 18,000 psi and the debris was removed by centrifugation at 38,720×g for 20 min at 4° C. The supernatant was then used as the crude cell free extract for enzyme assays.\n(§3) Protein concentrations were determined using the Bradford method (Anal. Biochem. 72:248-254 (1976)). The Coomassie solution was mixed with varying amounts of the cell free extracts and the OD at 595 nm was measured.\n(§4) For PAL activity, cinnamate formation was monitored at 290 nm using a molar extinction coefficient of 9000 cm-1. One unit of activity deaminates 1.0 μmol of phenylalanine to cinnamate in one min. For TAL activity, PHCA formation was monitored at 315 nm (extinction coefficient of 10,000 cm-1). One unit of activity deaminates 1.0 μmol of tyrosine to PHCA in one min."}, "[2]": {"system": "Rhodotorula graminis (ATCC No. 20804) PAL/TAL enzyme", "test": "PAL/TAL enzyme kinetics in cell-free extract, R. graminis ATCC 20804", "text": "as §1, §2, §3, §4"}, "[3]": {"system": "Sporidiobolus ruinenii (ATCC No. 20489) PAL/TAL enzyme", "test": "PAL/TAL enzyme kinetics in cell-free extract, S. ruinenii ATCC 20489", "text": "as §1, §2, §3, §4"}, "[4]": {"system": "Trichosporon cutaneum (ATCC No. 58094) tyrosine ammonia lyase (TAL), wild type, SEQ ID NO:25", "test": "PAL/TAL enzyme kinetics in cell-free extract, T. cutaneum ATCC 58094", "text": "as §1, §2, §3, §4"}, "[5]": {"biological_target": "T1, Rhodotorula rubra (ATCC No. 889) PAL/TAL enzyme (Rhodotorula mucilaginosa, UniProt P10248)", "T1 sequence (P10248 1-713)": "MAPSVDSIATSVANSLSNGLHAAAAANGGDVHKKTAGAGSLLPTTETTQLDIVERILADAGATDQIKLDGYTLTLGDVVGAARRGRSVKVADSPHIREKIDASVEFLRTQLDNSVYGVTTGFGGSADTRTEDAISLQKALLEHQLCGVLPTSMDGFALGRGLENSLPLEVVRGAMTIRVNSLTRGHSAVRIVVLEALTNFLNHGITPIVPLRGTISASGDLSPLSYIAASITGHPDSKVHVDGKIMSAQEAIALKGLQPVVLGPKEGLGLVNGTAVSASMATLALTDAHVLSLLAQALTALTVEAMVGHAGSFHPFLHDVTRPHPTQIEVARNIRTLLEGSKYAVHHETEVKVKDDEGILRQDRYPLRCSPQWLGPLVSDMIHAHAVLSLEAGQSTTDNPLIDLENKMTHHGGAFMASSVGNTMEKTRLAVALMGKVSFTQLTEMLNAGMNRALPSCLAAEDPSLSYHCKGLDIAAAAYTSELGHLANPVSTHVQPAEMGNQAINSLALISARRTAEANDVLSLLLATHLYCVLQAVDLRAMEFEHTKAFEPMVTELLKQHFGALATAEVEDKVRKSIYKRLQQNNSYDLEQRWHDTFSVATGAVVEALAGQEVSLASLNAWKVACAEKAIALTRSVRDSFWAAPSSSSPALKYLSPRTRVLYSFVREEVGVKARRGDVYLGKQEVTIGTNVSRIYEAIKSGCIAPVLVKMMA", "test": "PAL/TAL enzyme kinetics in cell-free extract, R. rubra ATCC 889", "conditions": "Vmax/Km for phenylalanine relative to tyrosine", "text": "as §1, with “The cells were grown up at 30° C. on a shaker at ˜250 rpm to an OD between 1.0 and 2.0 at 600 nm. The cells were then pelleted by centrifugation and resuspended in 1.0 mL of 50 mM Tris-HCl buffer, pH 8.5.” left out\nas §3\n(§5) For PAL activity, cinnamate formation was monitored at 290 nm using a molar extinction coefficient of 9000 cm-1. […] For TAL activity, PHCA formation was monitored at 315 nm (extinction coefficient of 10,000 cm-1). […]"}, "[6]": {"system": "Saccharomycopsis fibuligera (ATCC No. 2080) PAL/TAL enzyme", "test": "PAL/TAL enzyme kinetics in cell-free extract, S. fibuligera ATCC 2080", "text": "as §1, §2, §3, §4"}, "[7]": {"biological_target": "T2, R. glutinis (Rhodosporidium toruloides, ATCC No. 10788) PAL/TAL enzyme (Rhodotorula toruloides, UniProt P11544)", "T2 sequence (P11544 1-716)": "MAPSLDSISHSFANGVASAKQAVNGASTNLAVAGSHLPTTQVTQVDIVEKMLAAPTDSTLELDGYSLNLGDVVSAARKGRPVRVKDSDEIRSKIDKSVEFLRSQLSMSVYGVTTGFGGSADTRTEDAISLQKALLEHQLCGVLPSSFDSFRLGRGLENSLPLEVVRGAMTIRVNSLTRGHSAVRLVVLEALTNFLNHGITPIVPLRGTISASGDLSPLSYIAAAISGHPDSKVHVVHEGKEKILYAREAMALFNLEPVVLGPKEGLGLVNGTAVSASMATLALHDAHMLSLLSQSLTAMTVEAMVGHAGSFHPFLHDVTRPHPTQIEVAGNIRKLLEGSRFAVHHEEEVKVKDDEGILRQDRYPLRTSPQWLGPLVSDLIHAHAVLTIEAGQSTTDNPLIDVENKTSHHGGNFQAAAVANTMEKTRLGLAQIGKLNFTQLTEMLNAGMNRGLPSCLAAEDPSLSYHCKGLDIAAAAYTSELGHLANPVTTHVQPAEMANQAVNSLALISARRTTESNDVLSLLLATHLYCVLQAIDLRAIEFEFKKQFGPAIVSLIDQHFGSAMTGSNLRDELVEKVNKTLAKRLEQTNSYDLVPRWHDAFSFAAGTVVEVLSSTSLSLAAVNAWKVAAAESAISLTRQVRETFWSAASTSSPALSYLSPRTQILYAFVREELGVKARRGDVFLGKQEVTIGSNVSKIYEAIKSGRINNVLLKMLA", "test": "PAL/TAL enzyme kinetics in cell-free extract, R. glutinis (R. toruloides) ATCC 10788", "conditions": "Vmax/Km for phenylalanine relative to tyrosine", "text": "as §1, with “The cells were grown up at 30° C. on a shaker at ˜250 rpm to an OD between 1.0 and 2.0 at 600 nm. The cells were then pelleted by centrifugation and resuspended in 1.0 mL of 50 mM Tris-HCl buffer, pH 8.5.” left out\nas §3, §5"}, "[8]": {"system": "Rhodotorula minuta (ATCC No. 32769) PAL/TAL enzyme", "test": "PAL/TAL enzyme kinetics in cell-free extract, R. minuta ATCC 32769", "text": "as §1, §2, §3, §4"}, "[9]": {"system": "Trichosporon cutaneum (ATCC No. 46446) PAL/TAL enzyme", "test": "PAL/TAL enzyme kinetics in cell-free extract, T. cutaneum ATCC 46446", "text": "as §1, §2, §3, §4"}, "[10]": {"conditions": "Vmax/Km for phenylalanine relative to tyrosine"}, "[11]": {"conditions": "apparent, phenylalanine as substrate, cell-free extract, pH 8.5"}, "[12]": {"conditions": "apparent, phenylalanine as substrate, cell-free extract, pH 8.5, read-out: Km (PAL)"}, "[13]": {"conditions": "apparent, tyrosine as substrate, cell-free extract, pH 8.5"}, "[14]": {"conditions": "apparent, tyrosine as substrate, cell-free extract, pH 8.5, read-out: Km (TAL)"}},
  "note": "Read-outs that look alike come from different tables or passages of the source.",
  "data": [
    {"smiles": "N[C@@H](Cc1ccccc1)C(=O)O", "note": "[L-phenylalanine]", "values": [
      {"measurement": "Ratio PAL/TAL", "setting": "[1]; [10]", "value": 3.55},
      {"measurement": "Vmax (PAL)", "setting": "[1]; [11]", "value": 0.179, "unit": "U/mg"},
      {"measurement": "Km", "setting": "[1]; [12]", "value": 507, "unit": "µM"},
      {"measurement": "Ratio PAL/TAL", "setting": "[2]; [10]", "value": 1.87},
      {"measurement": "Vmax (PAL)", "setting": "[2]; [11]", "value": 0.239, "unit": "U/mg"},
      {"measurement": "Km", "setting": "[2]; [12]", "value": 448, "unit": "µM"},
      {"measurement": "Ratio PAL/TAL", "setting": "[3]; [10]", "value": 4.09},
      {"measurement": "Vmax (PAL)", "setting": "[3]; [11]", "value": 0.024, "unit": "U/mg"},
      {"measurement": "Km", "setting": "[3]; [12]", "value": 389, "unit": "µM"},
      {"measurement": "Ratio PAL/TAL", "setting": "[4]; [10]", "value": 0.80},
      {"measurement": "Vmax (PAL)", "setting": "[4]; [11]", "value": 0.777, "unit": "U/mg"},
      {"measurement": "Km", "setting": "[4]; [12]", "value": 2330, "unit": "µM"},
      {"measurement": "Ratio PAL/TAL", "setting": "[5]", "value": 2.52},
      {"measurement": "Ratio PAL/TAL", "setting": "[6]; [10]", "value": 1.74},
      {"measurement": "Vmax (PAL)", "setting": "[6]; [11]", "value": 0.011, "unit": "U/mg"},
      {"measurement": "Km", "setting": "[6]; [12]", "value": 467, "unit": "µM"},
      {"measurement": "Ratio PAL/TAL", "setting": "[7]", "value": 2.20},
      {"measurement": "Ratio PAL/TAL", "setting": "[8]; [10]", "value": 2.79},
      {"measurement": "Vmax (PAL)", "setting": "[8]; [11]", "value": 0.083, "unit": "U/mg"},
      {"measurement": "Km", "setting": "[8]; [12]", "value": 584, "unit": "µM"},
      {"measurement": "Ratio PAL/TAL", "setting": "[9]; [10]", "value": 2.64},
      {"measurement": "Vmax (PAL)", "setting": "[9]; [11]", "value": 0.128, "unit": "U/mg"},
      {"measurement": "Km", "setting": "[9]; [12]", "value": 49600, "unit": "µM"}
    ]},
    {"smiles": "N[C@@H](Cc1ccc(O)cc1)C(=O)O", "note": "[L-tyrosine]", "values": [
      {"measurement": "Vmax (TAL)", "setting": "[1]; [13]", "value": 0.033, "unit": "U/mg"},
      {"measurement": "Km", "setting": "[1]; [14]", "value": 327, "unit": "µM"},
      {"measurement": "Vmax (TAL)", "setting": "[2]; [13]", "value": 0.044, "unit": "U/mg"},
      {"measurement": "Km", "setting": "[2]; [14]", "value": 154, "unit": "µM"},
      {"measurement": "Vmax (TAL)", "setting": "[3]; [13]", "value": 0.004, "unit": "U/mg"},
      {"measurement": "Km", "setting": "[3]; [14]", "value": 264, "unit": "µM"},
      {"measurement": "Km", "setting": "[4]; [14]", "value": 431, "unit": "µM"},
      {"measurement": "Vmax (TAL)", "setting": "[6]; [13]", "value": 0.002, "unit": "U/mg"},
      {"measurement": "Km", "setting": "[6]; [14]", "value": 156, "unit": "µM"},
      {"measurement": "Vmax (TAL)", "setting": "[8]; [13]", "value": 0.011, "unit": "U/mg"},
      {"measurement": "Km", "setting": "[8]; [14]", "value": 212, "unit": "µM"},
      {"measurement": "Vmax (TAL)", "setting": "[9]; [13]", "value": 0.013, "unit": "U/mg"},
      {"measurement": "Km", "setting": "[9]; [14]", "value": 13100, "unit": "µM"}
    ]}
  ]
}
